Measurements as given in US11130960B2, “Methods for conferring or enhancing herbicide resistance on plants and/or alga with protoporphyrinogen oxidase variants” (FARM HANNONG CO., LTD., priority 2014, dated 2021).

Columns and labels:
Assay in all cases: Growth inhibition of BT3(ΔPPO) E. coli transformed with 98% homology variant, LB solid medium
Conditions in all cases: 1% agar LB solid medium, 37° C., 14~16 hours, light
CyPPO2 variant = assay type: cell-based, Oscillatoria nigro-viridis PCC 7112
Description: (§1) To investigate amino acid sequence homology range of CyPPO2, CyPPO4 and CyPPO8 which maintain herbicide resistance, a part of the amino acid sequence of CyPPO2, CyPPO4 or CyPPO8 protein was replaced by a part of the amino acid sequence of NtPPO (tobacco-derived PPO gene). As a result, the amino acid sequence of the resulting CyPPO2 variant is represented by SEQ ID NO: 12, and its nucleotide sequence thereof is represented by SEQ ID NO: 13. […] Further, the amino acid sequence of the CyPPO4 variant is represented by SEQ ID NO: 14, and its nucleotide sequence thereof is represented by SEQ ID NO: 15. […] Further, the amino acid sequence of the CyPPO8 variant is represented by SEQ ID NO: 16, and its nucleotide sequence thereof is represented by SEQ ID NO: 17.
(§2) Herbicide resistance of the amino acid sequence variant of CyPPO2, the amino acid sequence variant of CyPPO4, and the amino acid sequence variant of CyPPO8 was investigated in PPO-deficient BT3 E. coli [BT3(ΔPPO)], and a specific experimental method is similar to that of Example 3. In the same manner as in Example 3, as a negative control, the wild-type PPO (wild-type AtPPO1) of Arabidopsis thaliana was employed as a reference for herbicide-sensitivity. As a positive control, the mutant AtPPO1 which was prepared by amino acid replacement of Y426M and S305L in the wild-type amino acid sequence was employed as a reference for herbicide-resistance.
(§3) An autoclave was used under conditions of 121° C. and 15 minutes, and an incubator was used at 37° C. with lighting of 169 μmol m^−2 s^−1 for a culture time of 14˜16 hours. A UV-visible spectrophotometer was used at 600 nm. PCR was performed under conditions of at 94° C. for 4 minutes, and 25 cycles (at 94° C. for 30 seconds, at 56˜60° C. for 30 seconds and at 72° C. for 3 minutes), at 72° C. for 5 minutes and at 4° C. for 5 minutes. Respective herbicides were prepared at a concentration of 200 mM in DMSO, and stored at −20° C. Before use, the herbicides were diluted and added to LB broth medium (containing […]).
(§4) Saturated cells were inoculated in 3 ml of LB liquid medium containing chloramphenicol, and then cultured at 37° C., 200 rpm for 5 hours. Density of the cultured cells was measured at 600 nm, and the transformants were diluted with LB liquid medium to have the same absorbance (OD600) per 1 ml thereof (OD600=0.5). Agar was added to LB liquid medium at a concentration of 1%, and then autoclaved. Chloramphenicol (34 μg/ml) and herbicide were added and mixed. Cells diluted equally was diluted at a density of 10^0, 10^−1, 10^−2, 10^−3, 10^−4, and 10^−5. Each 10 μl of the cells was dropped on 1% agar, LB solid medium, and cultured in a 37° C. incubator for 14˜16 hours (light condition: 169 μmol m^−2s^−1).
(§5) To prepare BT3(ΔPPO) competent cells, BT3(ΔPPO) strain was added to 5 ml of LB broth containing 50 μg/ml kanamycin and 20 μg/ml hematin, and cultured in a 37° C. shaking incubator for 12 hours in the dark. Thereafter, 5 ml of the culture was added to 100 ml of LB broth containing 20[…] μg/ml hematin, and cultured in a 37° C. shaking incubator in the dark until OD600 reached 0.5. BT3(ΔPPO) competent cells were prepared from the cultured E. coli using CaCl2 according to protocols for preparing competent cells. Next, to transform the BT3(ΔPPO) strain with the respective vectors harboring the CyPPO2 variant, CyPPO4 variant and CyPPO8 variant, 5 μl of the vector was added to 100 μl of BT3(ΔPPO) competent cells, and the mixture was mixed well, allowed to react on ice for 20 minutes, and then left at 42° C. for 40 seconds. After stabilization on ice for 2 minutes, 1 ml of LB broth was added to BT3(ΔPPO), and cultured at 37° C. for 1 hour with shaking. The cells cultured in the medium were collected according to the type of the gene insert, and then spread on LB solid medium containing chloramphenicol (34 μg/ml), and cultured at 37° C. for 12 hours or longer. Thereafter, single colonies thereof were cultured in LB liquid medium. […]

CyPPO4 variant = assay type: cell-based, Lyngbya sp. PCC 8106
Description: as §1, §2, §3, §4, §5

CyPPO8 variant = assay type: cell-based, Halothece sp. PCC 7418
Description: as §1, §2, §3, §4, §5

Measured: concentration at which growth inhibition was hardly observed

CC(C)Oc1cc(-n2nc(C(C)(C)C)oc2=O)c(Cl)cc1Cl [Oxadiazon]
25 µM: all assays above

Cc1nn(-c2cc(NS(C)(=O)=O)c(Cl)cc2Cl)c(=O)n1C(F)F [Sulfentrazone]
25 µM: all assays above

CCOc1cc(Oc2ccc(C(F)(F)F)cc2Cl)ccc1[N+](=O)[O-] [Oxyfluorfen]
25 µM: all assays above

C#CCN1C(=O)COc2cc(F)c(N3C(=O)C4=C(CCCC4)C3=O)cc21 [Flumioxazin]
25 µM: all assays above

O=C(O)c1cc(Oc2ccc(C(F)(F)F)cc2Cl)ccc1[N+](=O)[O-] [Acifluorfen]
25 µM: all assays above

COC(=O)CSc1cc(/N=c2\sc(=O)n3n2CCCC3)c(F)cc1Cl [Fluthiacet-methyl]
25 µM: all assays above

CC(C)N(C)S(=O)(=O)NC(=O)c1cc(-n2c(=O)cc(C(F)(F)F)n(C)c2=O)c(F)cc1Cl [Saflufenacil]
25 µM: all assays above

CC(C)=C1OC(=O)N(c2cc(OC3CCCC3)c(Cl)cc2F)C1=O [Pentoxazone]
25 µM: all assays above

C=CCOC(=O)C(C)(C)OC(=O)c1cc(-n2c(=O)cc(C(F)(F)F)n(C)c2=O)ccc1Cl [Butafenacil]
25 µM: all assays above

CS(=O)(=O)NC(=O)c1cc(Oc2ccc(C(F)(F)F)cc2Cl)ccc1[N+](=O)[O-] [Fomesafen]
25 µM: all assays above

COC(=O)CCNC(=O)C(C)Sc1cc(-n2c(=O)cc(C(F)(F)F)n(C)c2=O)c(F)cc1Cl (stereo not drawn) [Tiafenacil]
25 µM: all assays above

CCOC(=O)COc1cc(-c2nn(C)c(OC(F)F)c2Cl)c(F)cc1Cl [Pyraflufen-ethyl]
25 µM: all assays above

C#CCN(C)c1c(C#N)cnn1-c1nn2c(c1Cl)CCCC2 [Pyraclonil]
25 µM: all assays above
